Experimental data: patent US20230204598A1, “MAM-SPECIFIC FLUORESCENCE MARKER AND USE THEREOF” (POSTECH ACADEMY-INDUSTRY FOUNDATION, priority 2016, published 2023)

Tested on: MAM structure in HEK293 cells
Assay: Verification of MAM specificity of the fluorescent marker using a drug (MAM suppressor)
Type: cell-based
Details: HEK293 cells transfected with the MAM-specific bimolecular fluorescent marker; 150 μM added to the cell culture solution; incubated for 3 or 24 hours; fluorescence microscope (FIG. 7)
Method: HEK293 cells transfected in Example 4-1 were incubated in DMEM containing a 10% fetal bovine serum (FBS) for 24 hours under conditions of 37° C. and 5% CO2. Afterward, the culture solution was washed with PBS, and then cells were fixed by treatment with a 4% para-formaldehyde cell fixing solution for 10 minutes. The cell fixing solution was sufficiently washed with PBS, and a cover glass was immobilized on a slide glass using a mounting solution, thereby manufacturing a microscope sample. […]
The MAM-specific bimolecular fluorescent marker was transfected into HEK293 cells in the same manner as in Example 5-1, 150 μM of methyl-β-cyclodextrin known as a MAM suppressor was added to the cell culture solution, and the cells were incubated for 3 or 24 hours under cell culture conditions, thereby manufacturing a microscope sample, and then the microscope sample was observed using a fluorescence microscope.

Substance: methyl-β-cyclodextrin
- fluorescence level of the MAM-specific fluorescent marker: significantly reduced
